In patent US10414811B2, “Protease-resistant lipidated GLP-1 analogs” (MEDIMMUNE LIMITED, priority 2015, dated 2019):
Like-named read-outs stand apart in the source and are kept apart here. Numbered stars: 1 amine (or outer) side, 2 acyl side, 3 side chain; on linkers, the order of the positions; unused ones are H or OH. Square brackets hold non-standard residues; d marks the D form. Side chains are listed from the residue outwards. Peptide text beside a SMILES is read from it. * marks the point of attachment. γGlu = O=C(O)[C@H](CCC(=O)[*:2])N[*:1]; Palmitoyl = CCCCCCCCCCCCCCCC(=O)*; αMeF = C[C@](N)(Cc1ccccc1)C(=O)O; αMeK = C[C@](N)(CCCCN)C(=O)O; Lauroyl = CCCCCCCCCCCC(=O)*; αMeS = C[C@](N)(CO)C(=O)O; Nle = CCCC[C@H](N)C(=O)O; AEEA = NCCOCCOCC(=O)O; Aib = CC(C)(N)C(=O)O

Assays:
Assay type in all cases: cell-based
[1] = biological target: T1, human GLP-1 receptor (GLP-1R) (Homo sapiens, UniProt P43220); experiment: cAMP assay, human GLP-1R cells
T1 construct: expressed in transfected cells
T1 sequence (P43220 24-463): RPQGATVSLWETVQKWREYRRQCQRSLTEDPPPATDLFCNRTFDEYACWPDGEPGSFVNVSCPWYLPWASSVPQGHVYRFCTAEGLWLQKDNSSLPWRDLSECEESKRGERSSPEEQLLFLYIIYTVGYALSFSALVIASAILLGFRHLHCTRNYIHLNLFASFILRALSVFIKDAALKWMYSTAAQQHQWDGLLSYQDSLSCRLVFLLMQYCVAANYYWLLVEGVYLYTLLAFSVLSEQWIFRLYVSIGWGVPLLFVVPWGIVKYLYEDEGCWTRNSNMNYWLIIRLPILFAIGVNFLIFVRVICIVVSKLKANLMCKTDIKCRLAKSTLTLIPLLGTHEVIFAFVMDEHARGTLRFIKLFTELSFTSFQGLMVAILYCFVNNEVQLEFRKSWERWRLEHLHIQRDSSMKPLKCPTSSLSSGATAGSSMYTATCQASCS
Method in brief: (§1)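 Peptide-stimulated cAMP measured by two-step HTRF after a 30 min room-temperature incubation with receptor-expressing cells (hGLP-1R, hGIPR at 1×10^5 cells/ml; hGCGR at 2×10^5 cells/ml). Duplicate dilutions; EC50 from 4-parameter logistic fit of % Delta F.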

GLP-1R (INS1e assay) = biological target: T2, GLP-1R (INS1e assay) (Rattus norvegicus, UniProt P32301); experiment: INS1e assay, cAMP activity at GLP-1R; conditions: bis-lipidated peptides
T2 construct: endogenous in cells; host or cells: INS-1E cells
T2 sequence (P32301 22-463): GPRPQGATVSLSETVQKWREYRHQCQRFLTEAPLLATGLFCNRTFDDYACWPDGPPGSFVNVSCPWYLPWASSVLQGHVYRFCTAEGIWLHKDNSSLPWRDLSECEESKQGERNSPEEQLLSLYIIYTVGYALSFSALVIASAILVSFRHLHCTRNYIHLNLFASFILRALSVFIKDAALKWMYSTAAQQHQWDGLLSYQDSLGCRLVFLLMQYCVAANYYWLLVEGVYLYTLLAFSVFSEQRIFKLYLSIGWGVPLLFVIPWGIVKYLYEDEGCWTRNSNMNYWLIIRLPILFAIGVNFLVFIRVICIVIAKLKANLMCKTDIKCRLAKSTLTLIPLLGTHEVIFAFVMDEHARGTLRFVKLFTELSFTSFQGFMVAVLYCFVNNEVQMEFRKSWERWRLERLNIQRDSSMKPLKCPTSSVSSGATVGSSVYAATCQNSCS
Description: cAMP levels are measured using a commercially available cAMP dynamic 2 HTRF kit (Cisbio, Cat #62AM4PEJ), following the two step protocol as per manufacturer's recommendations. In brief; anti-cAMP cryptate (donor fluorophore) and cAMP-d2 (acceptor fluorophore) are made up separately by diluting each 1/20 in conjugate & lysis buffer provided in the kit. 5 μL anti-cAMP cryptate is added to wells of the assay plate, and 5 μL cAMP-d2 is added to wells except non-specific binding (NSB) wells, to which conjugate and lysis buffer are added. […] EC50 values of the synthetic peptides determined in cAMP assays are then determined.

[2] = biological target: T3, human glucose-dependent insulinotropic peptide receptor (GIPR) (Homo sapiens, UniProt P48546); experiment: cAMP assay, human GIPR cells
T3 construct: expressed in transfected cells
T3 sequence (P48546 22-466): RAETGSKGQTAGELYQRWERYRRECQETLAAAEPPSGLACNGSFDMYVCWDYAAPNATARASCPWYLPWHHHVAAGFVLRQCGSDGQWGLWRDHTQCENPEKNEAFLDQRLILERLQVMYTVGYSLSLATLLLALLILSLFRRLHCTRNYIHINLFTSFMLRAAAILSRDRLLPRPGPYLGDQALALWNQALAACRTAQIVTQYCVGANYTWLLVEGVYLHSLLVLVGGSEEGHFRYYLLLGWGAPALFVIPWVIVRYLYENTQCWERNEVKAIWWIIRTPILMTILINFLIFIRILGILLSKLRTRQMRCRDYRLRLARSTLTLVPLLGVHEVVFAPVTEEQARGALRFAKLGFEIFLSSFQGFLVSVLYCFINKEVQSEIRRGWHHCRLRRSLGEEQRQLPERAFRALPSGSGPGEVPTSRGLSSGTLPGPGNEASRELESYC
Method in brief: as §1

[3] = biological target: T4, human glucagon receptor (GCGR) (Homo sapiens, UniProt P47871); experiment: cAMP assay, human GCGR cells
T4 construct: expressed in transfected cells
T4 sequence (P47871 26-477): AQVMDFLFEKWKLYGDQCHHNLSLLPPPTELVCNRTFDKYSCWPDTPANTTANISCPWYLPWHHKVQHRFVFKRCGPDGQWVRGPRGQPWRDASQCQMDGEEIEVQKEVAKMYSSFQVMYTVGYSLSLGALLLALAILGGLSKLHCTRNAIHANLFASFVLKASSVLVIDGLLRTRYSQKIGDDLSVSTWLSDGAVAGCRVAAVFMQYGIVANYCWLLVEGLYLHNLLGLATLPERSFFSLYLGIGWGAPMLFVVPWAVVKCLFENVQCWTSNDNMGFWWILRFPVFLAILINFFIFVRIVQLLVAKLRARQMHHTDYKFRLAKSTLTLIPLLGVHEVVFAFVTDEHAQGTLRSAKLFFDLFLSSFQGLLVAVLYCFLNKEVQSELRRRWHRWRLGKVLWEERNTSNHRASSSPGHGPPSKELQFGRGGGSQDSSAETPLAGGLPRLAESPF
Method in brief: as §1

[4] = bis-lipidated peptides, mean of n1 and n2, read-out: Primary assay EC50 Mean pM GLP-1R
[5] = bis-lipidated peptides, replicate n1, read-out: Primary assay EC50 GLP-1R n1
[6] = bis-lipidated peptides, replicate n2, read-out: Primary assay EC50 GLP-1R n2
[7] = mean of n1 and n2, read-out: INS1e assay EC50 Mean pM GLP-1R
[8] = replicate n1, read-out: INS1e assay EC50 GLP-1R n1
[9] = replicate n2, read-out: INS1e assay EC50 GLP-1R n2

SMILES	EC50 [1, 4]	EC50 [1, 5]	EC50 [1, 6]	EC50 (GLP-1R (INS1e assay); [7])	EC50 (GLP-1R (INS1e assay); [8])	EC50 (GLP-1R (INS1e assay); [9])	other results
CCCCCCCCCCCCCCCC(=O)N[C@@H](CCC(=O)NCCOCCOCC(=O)NCCOCCOCC(=O)NCCCC[C@H](NC(=O)[C@H](C)NC(=O)[C@@H](NC(=O)[C@](C)(Cc1ccccc1)NC(=O)[C@H](CCC(=O)O)NC(=O)[C@](C)(CCCCN)NC(=O)[C@H](C)NC(=O)[C@H](C)NC(=O)[C@H](CCC(=O)O)NC(=O)CNC(=O)[C@H](CCC(=O)O)NC(=O)[C@H](CC(C)C)NC(=O)[C@H](CCCCNC(=O)COCCOCCNC(=O)COCCOCCNC(=O)CC[C@H](NC(=O)CCCCCCCCCCCCCCC)C(=O)O)NC(=O)[C@H](CO)NC(=O)[C@](C)(CO)NC(=O)[C@@H](NC(=O)[C@H](CC(=O)O)NC(=O)[C@H](CO)NC(=O)[C@@H](NC(=O)[C@](C)(Cc1ccccc1)NC(=O)[C@H](CO)NC(=O)CNC(=O)[C@H](CCC(=O)O)NC(=O)C(C)(C)NC(=O)[C@@H](N)Cc1c[nH]cn1)[C@@H](C)O)C(C)C)[C@@H](C)CC)C(=O)N[C@H](C(=O)N[C@H](C(=O)N[C@@H](CCC(=O)O)C(=O)NCC(=O)NCC(N)=O)C(C)C)C(C)C)C(=O)O [compound 409] (H-H[Aib]EGS[αMeF]TSDV[αMeS]SK([AEEA-AEEA-γGlu-Palmitoyl])LEGEAA[αMeK]E[αMeF]IAK([AEEA-AEEA-γGlu-Palmitoyl])VVEGG-NH2)	36.1 pM	39.5 pM	32.6 pM	216 pM	183 pM	249 pM	
CCCCCCCCCCCC(=O)N[C@@H](CCC(=O)NCCOCCOCC(=O)NCCOCCOCC(=O)NCCCC[C@H](NC(=O)[C@H](CO)NC(=O)[C@](C)(CO)NC(=O)[C@@H](NC(=O)[C@H](CC(=O)O)NC(=O)[C@H](CO)NC(=O)[C@@H](NC(=O)[C@](C)(Cc1ccccc1)NC(=O)[C@H](CO)NC(=O)CNC(=O)[C@H](CCC(=O)O)NC(=O)C(C)(C)NC(=O)[C@@H](N)Cc1c[nH]cn1)[C@@H](C)O)C(C)C)C(=O)N[C@@H](CC(C)C)C(=O)N[C@@H](CCC(=O)O)C(=O)NCC(=O)N[C@@H](CCC(=O)O)C(=O)N[C@@H](C)C(=O)N[C@@H](C)C(=O)N[C@@](C)(CCCCN)C(=O)N[C@@H](CCC(=O)O)C(=O)N[C@@H](Cc1ccccc1)C(=O)N[C@H](C(=O)N[C@@H](CCCCNC(=O)COCCOCCNC(=O)COCCOCCNC(=O)CC[C@H](NC(=O)CCCCCCCCCCC)C(=O)O)C(=O)N[C@@H](Cc1c[nH]c2ccccc12)C(=O)N[C@H](C(=O)N[C@H](C(=O)N[C@@H](CCC(=O)O)C(=O)NCC(=O)NCC(N)=O)C(C)C)C(C)C)[C@@H](C)CC)C(=O)O [compound 262] (H-H[Aib]EGS[αMeF]TSDV[αMeS]SK([AEEA-AEEA-γGlu-Lauroyl])LEGEAA[αMeK]EFIK([AEEA-AEEA-γGlu-Lauroyl])WVVEGG-NH2; N-terminus assumed)	5.4 pM	6.73 pM	4.14 pM	552 pM	700 pM	403 pM	
CCCCCCCCCCCC(=O)N[C@@H](CCC(=O)NCCOCCOCC(=O)NCCOCCOCC(=O)NCCCC[C@H](NC(=O)[C@H](C)NC(=O)[C@@H](NC(=O)[C@H](CCCC)NC(=O)[C@H](CCC(=O)O)NC(=O)[C@](C)(CCCCN)NC(=O)[C@H](C)NC(=O)[C@H](C)NC(=O)[C@H](CCC(=O)O)NC(=O)CNC(=O)[C@H](CCC(=O)O)NC(=O)[C@H](CC(C)C)NC(=O)[C@H](CCCCNC(=O)COCCOCCNC(=O)COCCOCCNC(=O)CC[C@H](NC(=O)CCCCCCCCCCC)C(=O)O)NC(=O)[C@H](CO)NC(=O)[C@](C)(CO)NC(=O)[C@@H](NC(=O)[C@H](CC(=O)O)NC(=O)[C@H](CO)NC(=O)[C@@H](NC(=O)[C@](C)(Cc1ccccc1)NC(=O)[C@H](CO)NC(=O)CNC(=O)[C@H](CCC(=O)O)NC(=O)C(C)(C)NC(=O)[C@@H](N)Cc1c[nH]cn1)[C@@H](C)O)C(C)C)[C@@H](C)CC)C(=O)N[C@H](C(=O)N[C@H](C(=O)N[C@@H](CCC(=O)O)C(=O)NCC(=O)NCC(N)=O)C(C)C)C(C)C)C(=O)O [compound 407] (H-H[Aib]EGS[αMeF]TSDV[αMeS]SK([AEEA-AEEA-γGlu-Lauroyl])LEGEAA[αMeK]E[Nle]IAK([AEEA-AEEA-γGlu-Lauroyl])VVEGG-NH2)				104 pM	113 pM	95.2 pM	
CCCCCCCCCCCC(=O)N[C@@H](CCC(=O)NCCOCCOCC(=O)NCCOCCOCC(=O)NCCCC[C@H](NC(=O)CNC(=O)[C@H](CCC(=O)O)NC(=O)[C@H](CC(C)C)NC(=O)[C@H](Cc1ccc(O)cc1)NC(=O)[C@H](CO)NC(=O)[C@H](CO)NC(=O)[C@H](CCCCNC(=O)COCCOCCNC(=O)COCCOCCNC(=O)CC[C@H](NC(=O)CCCCCCCCCCC)C(=O)O)NC(=O)[C@H](CC(=O)O)NC(=O)[C@H](CO)NC(=O)[C@@H](NC(=O)[C@](C)(Cc1ccccc1)NC(=O)[C@H](CO)NC(=O)CNC(=O)[C@H](CCC(=O)O)NC(=O)C(C)(C)NC(=O)[C@@H](N)Cc1c[nH]cn1)[C@@H](C)O)C(=O)N[C@@H](C)C(=O)N[C@@H](C)C(=O)N[C@@](C)(CCCCN)C(=O)N[C@@H](CCC(=O)O)C(=O)N[C@@H](Cc1ccccc1)C(=O)N[C@H](C(=O)N[C@@H](CCCCNC(=O)COCCOCCNC(=O)COCCOCCNC(=O)CC[C@H](NC(=O)CCCCCCCCCCC)C(=O)O)C(=O)N[C@@H](Cc1ccccc1)C(=O)N[C@H](C(=O)N[C@H](C(=O)N[C@@H](CCC(=O)O)C(=O)NCC(=O)NCC(N)=O)C(C)C)C(C)C)[C@@H](C)CC)C(=O)O [compound 440] (H-H[Aib]EGS[αMeF]TSDK([AEEA-AEEA-γGlu-Lauroyl])SSYLEGK([AEEA-AEEA-γGlu-Lauroyl])AA[αMeK]EFIK([AEEA-AEEA-γGlu-Lauroyl])FVVEGG-NH2; N-terminus assumed)							EC50 ([2]; tris-lipidated peptides, first replicate, read-out: Primary assay EC50 GIP-R (n1)): 19.7 nM; EC50 ([1]; tris-lipidated peptides, mean of n1 and n2, read-out: Primary assay EC50 Mean pM GLP-1R): 130 pM; EC50 ([1]; tris-lipidated peptides, replicate n1, read-out: Primary assay EC50 GLP-1R n1): 96.7 pM; EC50 ([1]; tris-lipidated peptides, replicate n2, read-out: Primary assay EC50 GLP-1R n2): 164 pM; EC50 ([3]; tris-lipidated peptides, second replicate, read-out: Primary assay EC50 Gluc-R (n2)): 19.7 nM
CCCCCCCCCCCCCCCCCC(=O)NCCOCCOCC(=O)NCCCC[C@H](NC(=O)[C@H](C)NC(=O)[C@H](C)NC(=O)[C@H](CCC(=O)O)NC(=O)CNC(=O)[C@H](CCC(=O)O)NC(=O)[C@H](CC(C)C)NC(=O)[C@](C)(Cc1ccccc1)NC(=O)[C@H](CO)NC(=O)[C@](C)(CO)NC(=O)[C@@H](NC(=O)[C@H](CC(=O)O)NC(=O)[C@H](CO)NC(=O)[C@@H](NC(=O)[C@](C)(Cc1ccccc1)NC(=O)[C@H](CO)NC(=O)CNC(=O)[C@H](CCC(=O)O)NC(=O)C(C)(C)NC(=O)[C@@H](N)Cc1c[nH]cn1)[C@@H](C)O)C(C)C)C(=O)N[C@@H](CCC(=O)O)C(=O)N[C@@](C)(Cc1ccccc1)C(=O)N[C@H](C(=O)N[C@@H](C)C(=O)N[C@@](C)(Cc1ccccc1)C(=O)N[C@H](C(=O)N[C@H](C(=O)N[C@@](C)(CCCCN)C(=O)NCC(=O)NCC(N)=O)C(C)C)C(C)C)[C@@H](C)CC [compound 152]							EC50 ([2]; cAMP assay, first determination (n1), read-out: Primary assay EC50 GIP-R (n1)): ≥ 28 nM; EC50 ([2]; cAMP assay, second determination (n2), read-out: Primary assay EC50 GIP-R (n2)): ≥ 28 nM; EC50 ([1]; cAMP assay, first determination (n1), read-out: Primary assay EC50 GLP-1R n1): 39 pM; EC50 ([1]; cAMP assay, second determination (n2), read-out: Primary assay EC50 GLP-1R n2): 31 pM; EC50 ([1]; mean of n1 and n2, read-out: Mean pM GLP-1R): 34.7 pM; EC50 ([3]; cAMP assay, first determination (n1), read-out: Primary assay EC50 Gluc-R (n1)): ≥ 28 nM; EC50 ([3]; cAMP assay, second determination (n2), read-out: Primary assay EC50 Gluc-R (n2)): ≥ 28 nM
